Experimental findings from PubChem BioAssay (NCI) are described below.

Among the test systems are DMS 273 small cell lung; TK-10 renal; OVCAR-8 ovarian; KM12 colon; HCT-15 colon; LOX IMVI melanoma; SR leukemia; OVCAR-4 ovarian; T-47D breast; SF-539 CNS; SNB-78 CNS.
Common to all, as to experiment: NCI tumour cell line growth inhibition, 48 h

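How tested: cells in 96-well plates exposed to compound for 48 hours at five concentrations. Abbreviation: GI50, concentration required for 50% inhibition of growth. TGI denotes the concentration required for complete inhibition of growth.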

In the case of `O=C1C(Cl)=C(c2ccc([N+](=O)[O-])cc2)C(=O)c2c(O)cccc21`, the TGI in the experiment on DMS 273 small cell lung is more than 100 µM; in the experiment with TK-10 renal, 10.7 µM; in the experiment on OVCAR-8 ovarian, 5.78 µM; with KM12 colon it was 3.63 µM; in the experiment with HCT-15 colon, 3.35 µM; in the experiment with LOX IMVI melanoma, 3.6 µM. The TGI in the experiment on SR leukemia is more than 100 µM; in the experiment with OVCAR-4 ovarian, 4.62 µM; with T-47D breast, 5.54 µM; with SF-539 CNS it was 1.13 µM.

In the case of `Cc1nc2c(n1-c1ccccc1)C(=O)c1ccccc1C2=O`, the TGI with DMS 273 small cell lung, in the experiment on TK-10 renal, with OVCAR-8 ovarian, with KM12 colon, in the experiment on HCT-15 colon and in the experiment on SR leukemia was more than 100 µM each time. Besides, the TGI in the experiment on OVCAR-4 ovarian, with SNB-78 CNS and with SF-539 CNS was more than 100 µM throughout.

For `O=C(O)Cc1ccccc1CCc1ccccc1Cl`, the TGI in the experiment on DMS 273 small cell lung, with TK-10 renal, with OVCAR-8 ovarian, in the experiment on KM12 colon, in the experiment with HCT-15 colon and with LOX IMVI melanoma was more than 100 µM each time. In addition, the TGI in the experiment with SR leukemia, with OVCAR-4 ovarian, with SNB-78 CNS and with SF-539 CNS was more than 100 µM in each case.

`O=C1/C(=C/c2ccc(O)cc2)CCC1CNc1ccccc1` (configuration not stated): the TGI in the experiment on TK-10 renal was 24.3 µM; in the experiment on OVCAR-8 ovarian, 29.9 µM; in the experiment on KM12 colon it was 22.7 µM; in the experiment on HCT-15 colon it was 13.9 µM; in the experiment on LOX IMVI melanoma it was 22.2 µM; in the experiment with SR leukemia, 4.22 µM. Further, the TGI was determined as 33.3 µM in the experiment on OVCAR-4 ovarian, 55.2 µM in the experiment on T-47D breast and 29.8 µM with SF-539 CNS.

With `Cc1cc2nc(-c3c(N)ncc(C#N)c3-c3ccc(Cl)cc3)[nH]c2cc1C`, the GI50 with TK-10 renal was 4.67 µM; with OVCAR-8 ovarian, 4.53 µM; in the experiment with KM12 colon, 14.8 µM; in the experiment with HCT-15 colon, 30.6 µM; in the experiment on LOX IMVI melanoma, 5.83 µM; in the experiment on SR leukemia it was 28.7 µM. For the same compound, the GI50 is 4.4 µM with OVCAR-4 ovarian, 4.63 µM with T-47D breast and 2.07 µM in the experiment with SF-539 CNS. The TGI is 21.3 µM with TK-10 renal; 29.6 µM with OVCAR-8 ovarian; more than 100 µM with KM12 colon; more than 100 µM with HCT-15 colon; 26 µM in the experiment on LOX IMVI melanoma; more than 100 µM with SR leukemia. Moreover, the TGI in the experiment with OVCAR-4 ovarian is 25.4 µM; with T-47D breast, more than 100 µM; in the experiment with SF-539 CNS it was 5.78 µM.

As for `C[C@]12CCC(=O)C=C1CC[C@@H]1[C@@H]2[C@@H](O)C[C@@]2(C)[C@H]1CC[C@]2(O)C(=O)COC(=O)CCC1CCCC1`, the TGI in the experiment on DMS 273 small cell lung, in the experiment on TK-10 renal, with OVCAR-8 ovarian, with KM12 colon, with HCT-15 colon and with LOX IMVI melanoma was more than 100 µM each time. Further, the TGI in the experiment on SR leukemia, in the experiment with SNB-78 CNS and in the experiment on SF-539 CNS was more than 100 µM throughout.

Turning to `O=C1c2ccccc2C(=O)c2nn(N=P(CP(=Nn3nc4c(n3)C(=O)c3ccccc3C4=O)(c3ccccc3)c3ccccc3)(c3ccccc3)c3ccccc3)nc21`, the TGI with TK-10 renal, in the experiment on OVCAR-8 ovarian, in the experiment with KM12 colon, with HCT-15 colon, in the experiment with LOX IMVI melanoma and in the experiment on SR leukemia was more than 100 µM throughout. Further, the TGI with OVCAR-4 ovarian, with T-47D breast and in the experiment on SF-539 CNS was more than 100 µM in each case.

With `COC1(OC)C=CC(=O)C=C1`, the TGI with TK-10 renal is 7.67 µM; in the experiment on OVCAR-8 ovarian, 7.61 µM; in the experiment on KM12 colon it was 25.8 µM; in the experiment on HCT-15 colon, 16.9 µM; in the experiment with LOX IMVI melanoma, 2.91 µM; in the experiment on SR leukemia, more than 100 µM. Also, the values for the TGI with OVCAR-4 ovarian, in the experiment on T-47D breast and in the experiment on SF-539 CNS were 16.7 µM, 10.7 µM and 11.8 µM, respectively.

As for `O=NN1CCCS1(=O)=O`, the TGI in the experiment with TK-10 renal, in the experiment with OVCAR-8 ovarian, in the experiment on KM12 colon, with HCT-15 colon, with LOX IMVI melanoma and in the experiment on SR leukemia was more than 100 µM each time. The TGI in the experiment on OVCAR-4 ovarian, in the experiment on T-47D breast and in the experiment with SF-539 CNS was more than 100 µM throughout.

With `CCCCCCCCCCCCCCCCCCNC(=O)OCC(CNS(=O)(=O)CCC[n+]1cccc2ccccc21)COC` (configuration not stated), the TGI in the experiment on TK-10 renal was 31.1 µM; in the experiment with OVCAR-8 ovarian, more than 26.1 µM; in the experiment with HCT-15 colon, 59.2 µM; in the experiment with SR leukemia it was more than 100 µM; with OVCAR-4 ovarian, 7.01 µM; in the experiment with T-47D breast, more than 100 µM. For the same compound, the values for the TGI in the experiment with SNB-78 CNS and with SF-539 CNS were 7.92 µM and 5.63 µM, respectively.

Take `O=c1c(O)cccn1C1OC(CO)C(O)C1O` (configuration not stated): the TGI in the experiment on DMS 273 small cell lung, with TK-10 renal, with OVCAR-8 ovarian, in the experiment on KM12 colon, in the experiment on HCT-15 colon and in the experiment with LOX IMVI melanoma was more than 100 µM each time. Moreover, the TGI with OVCAR-4 ovarian and in the experiment on SNB-78 CNS was more than 100 µM throughout.

Consider `Clc1nc2c(C#Cc3ccccc3)ncnc2n1C1CCCCO1` (configuration not stated), for which the TGI with TK-10 renal was 53 µM; with OVCAR-8 ovarian it was more than 100 µM; in the experiment with KM12 colon, 35.1 µM; with HCT-15 colon, 31 µM; in the experiment with LOX IMVI melanoma, 30.7 µM; with SR leukemia, 24.1 µM. Besides, the TGI in the experiment on OVCAR-4 ovarian was 35.9 µM; in the experiment with T-47D breast it was more than 100 µM; in the experiment on SF-539 CNS, 42.2 µM.

Regarding `Cc1cn(CCOCCOC(=O)NC(CCCNC(N)=O)C(=O)O)c(=O)[nH]c1=O` (configuration not stated), the TGI in the experiment on TK-10 renal, in the experiment on OVCAR-8 ovarian, in the experiment with KM12 colon, with HCT-15 colon, in the experiment on LOX IMVI melanoma and in the experiment with SR leukemia was more than 100 µM in each case. For the same compound, the TGI in the experiment with OVCAR-4 ovarian, in the experiment with T-47D breast and in the experiment on SF-539 CNS was more than 100 µM in each case.

For the compound `CCN(CC)C1Oc2cc3c(cc2C(c2cc(OC)c(OC)c(OC)c2)C1C)OCO3` (configuration not stated), the TGI in the experiment on TK-10 renal is more than 72.1 µM; with OVCAR-8 ovarian it was more than 43.2 µM; in the experiment with KM12 colon, 30.7 µM; in the experiment with HCT-15 colon, 13.3 µM; in the experiment on LOX IMVI melanoma, more than 48.8 µM; in the experiment with SR leukemia, 5.01 µM. For the same compound, the figures for the TGI in the experiment on OVCAR-4 ovarian, with T-47D breast and in the experiment with SF-539 CNS were more than 100 µM, more than 88.7 µM and 1.43 µM, respectively.

Take `CC(C)(Cc1ccccc1)N1C(=O)N1C(C)(C)Cc1ccccc1`: the TGI was more than 100 µM in the experiment with TK-10 renal; more than 100 µM in the experiment on OVCAR-8 ovarian; more than 100 µM in the experiment on KM12 colon; 68.2 µM in the experiment with HCT-15 colon; 33.6 µM in the experiment on LOX IMVI melanoma; more than 100 µM in the experiment with SR leukemia. In addition, the TGI with OVCAR-4 ovarian, with T-47D breast and in the experiment on SF-539 CNS was more than 100 µM throughout.

In the case of `COc1ccc2ccccc2c1CN1CCOCCOCCN(Cc2c(OC)ccc3ccccc23)CCOCCOCC1`, the TGI with DMS 273 small cell lung was 70.5 µM; with TK-10 renal, more than 100 µM; in the experiment on OVCAR-8 ovarian, more than 100 µM; in the experiment on KM12 colon, more than 100 µM; in the experiment with HCT-15 colon it was more than 100 µM; with LOX IMVI melanoma it was more than 100 µM. Further, the TGI in the experiment on SR leukemia was more than 100 µM; in the experiment on OVCAR-4 ovarian, more than 100 µM; in the experiment with SNB-78 CNS, more than 100 µM; in the experiment with SF-539 CNS, more than 68.8 µM.

`O=C(O)COc1cc(-c2ccccc2)nc2ccccc12`: the TGI in the experiment on TK-10 renal, in the experiment with OVCAR-8 ovarian, with KM12 colon, in the experiment on HCT-15 colon, in the experiment on LOX IMVI melanoma and in the experiment on SR leukemia was more than 100 µM throughout. Also, the TGI in the experiment on OVCAR-4 ovarian, in the experiment on T-47D breast and with SF-539 CNS was more than 100 µM throughout.

With `COc1ccc(C2SCC(=O)N2NC(=O)C(C)Oc2ccc(Cl)cc2Cl)cc1` (configuration not stated), the TGI with TK-10 renal was more than 100 µM; in the experiment with OVCAR-8 ovarian, more than 100 µM; with KM12 colon, more than 100 µM; with HCT-15 colon, more than 100 µM; in the experiment on LOX IMVI melanoma, more than 100 µM; in the experiment with SR leukemia it was 17.3 µM. Besides, the TGI is 52.6 µM in the experiment on OVCAR-4 ovarian, more than 100 µM in the experiment on T-47D breast and 35.9 µM in the experiment with SF-539 CNS.
